Patent US11564986B2, “Approach for treatment of cancer via immunomodulation by using talabostat” (ONKOSXCEL THERAPEUTICS, LLC, priority 2015, dated 2023)

Tests used:
[1] = tested on: melanoma; details: monotherapy or combination; cited from earlier work
[2] = tested on: pancreatic and lung cancer; details: Talabostat alone or with cytokine or chemotherapeutic agents; cited from earlier work
[3] = tested on: MC38 mouse colon cancer cell line; test: Antitumor effect in MC38 mouse model of colon adenocarcinoma (tumor volume, tolerability; Study 1 and Study 2); assay type: in vivo
From the text: (§1) Six to seven-week-old female C57BL/6 mice were used in the studies. Mice received food and water ad libitum. The study protocol, the procedures involving the care and use of animals were reviewed and approved by the Institutional Animal Care and Use Committee (IACUC) to ensure compliance with the regulations of the Association for Assessment and Accreditation of Laboratory Animal Care (AAALAC).
MC38 mouse colon cancer cell line was provided by GenScript. The tumor cells were maintained as monolayer culture in DMEM supplemented with 10% fetal bovine serum (FBS), 1% Glutamax® and 1% Penicillin-Streptomycin at 37° C. in an atmosphere with 5% CO2. The cells were routinely subcultured every 2 days to maintain growth at exponential phase. The tumor cells growing in exponential growth phase were harvested by trypsinization, followed by centrifugation at 335×g relative centrifugal force (RCF) in a centrifuge. The supernatant was subsequently removed by aspiration. Cell pellet was resuspended in approximately 10× volume of cell culture medium and counted. The cell suspension was centrifuged again and processed as above and finally resuspended in HBSS−/− at a density of 1×10^7 cells per ml. Cell viability was determined to be 95% by trypan blue staining. Cell suspensions were implanted in the subcutaneous space of the flank of mice of female C57BL/6 mice (2.0×10^6 MC-38 cells in 0.2 mL Hanks Balanced Salt Solution). Mice were inoculated subcutaneously in the right lower flank (near the dorsal thigh region) with a single volume of 0.1 ml cell suspension containing about 1×10^6 cells.
Tumor size was measured twice per week in 2 dimensions using a caliper (recorded up to one decimal point). Tumor volume, expressed in mm^3, was calculated using the following formula, in which “a” and “b” were the long and the short diameters of a tumor, respectively. V (mm^3)=(a×b^2)/2
Animals were weighed and randomized into treatment groups when the mean tumor size was around 120 mm^3 on Day 0.
Data related to tumor volume, tumor weight, and body weight were presented as mean and the standard error of the mean (SEM). Statistical analyses were conducted using Student's t-test. P<0.05 was considered statistically significant. * and ** indicate P<0.05 and P<0.01, respectively.
The antitumor effect of single dose (qd) as well as twice daily (bid) administration of Talabostat alone and in combination with PD-1 antagonist at various dose schedules was evaluated in MC-38 (murine colon) tumor bearing mice. After the tumors were established, mice were sorted into various groups with a mean tumor volume of ˜200 mm^3. The test article and antibody were administered according to the dosing schedules described in Tables 5 and 6.

[4] = tested on: CT26 tumor cells; test: Immunophenotyping of CT26 tumor samples by quantitative PCR (NK cells, perforin, granzyme B, Tregs); assay type: in vivo; details: CT26, day 7 after first dosing; Talabostat 20 μg/mouse qd, PD-1 antagonist 5 mg/kg
Experimental: as §1, with “Mice (Balb/c) corresponding” for “Six”, “20±2 g weight,” for “seven-week-old female C57BL/6 mice were used in the studies. Mice”
Tumor Model The CT26 tumor cells were cultured in RPMI1640 medium supplemented with 10% heat inactivated fetal bovine serum, 100 U/ml penicillin and 100 μg/ml streptomycin, at 37° C. in an incubator of 5% CO2. The tumor cells were routinely subcultured three times per week. The cells growing in an exponential growth phase were harvested and counted for tumor inoculation. […]
The immuno-modulatory effect of the single dose (20 μg/mouse qd) administration of Talabostat alone and in combination with PD-1 antagonist (5 mg/kg), at various dose schedules was analysed by collecting the blood and the tumor samples 7 days after the first dosing the mice.
Tumor RNA samples were extracted from the frozen tumor tissues using the Trizol reagent. […] Quantitative PCR were conducted using a master mix from Invitrogen (Cat. #4309155) on an ABI 7900HT Fast Real-Time PCR System. The results were analyzed using a Delta Delta Ct method. […]

[5] = in vivo; cited from earlier work

Compound | Response rate in melanoma patients [1] | Primary and secondary endpoints in clinical trials [2] | Mean (±SEM) tumor volume ([3]; Study 1, MC38, Day 13, Talabostat 10 μg twice daily p.o.) | Mean (±SEM) tumor volume ([3]; Study 1, MC38, Day 13, Talabostat 20 μg twice daily p.o.) | Antitumor effect compared with the vehicle control group ([3]; Study 1, MC38, single treatment groups) | Mean (±SEM) tumor volume ([3]; Study 2, MC38, Day 11, Talabostat 2.5 μg BID p.o.) | Mean (±SEM) tumor volume ([3]; Study 2, MC38, Day 11, Talabostat 5 μg BID p.o.) | Mean (±SEM) tumor volume ([3]; Study 2, MC38, Day 11, Talabostat 10 μg BID p.o.) | Mean (±SEM) tumor volume ([3]; Study 2, MC38, Day 11, Talabostat 20 μg QD p.o.) | NK cell activation, perforin (Pfr1) release in tumor (relative mRNA) [4] | Most common adverse events [5]
Ipilimumab: CTLA-4 antagonist; human monoclonal antibody, CAS No. 477202-00-9 | 11% |  |  |  |  |  |  |  |  |  | 
Nivolumab: anti-PD-1 antibody, CAS Registry Number 946414-94-4 | 32% |  |  |  |  |  |  |  |  |  | 
CC(C)[C@H](N)C(=O)N1CCC[C@H]1B(O)O [Talabostat, [(2R)-I-I [(2S)-2-amino-3-methyl-1-oxobutyl]-2-pyrrolidinyl] boronic acid] |  | unable to meet primary as well as secondary endpoints | 1.66 (±0.48) cc | 1.30 (±0.42) cc | significant better effect | 3.2 (±0.48) cc | 2.9 (±0.42) cc | 2.9 (±0.18) cc | 2.0 (±0.43) cc | activation in terms of release of perforin | edema/peripheral swelling, hypotension, hypovolemia, and dizziness
